Measurements reported in PubChem BioAssay AID248 (DTP/NCI, 2004).
Values joined by “and” are separate entries in the source; they are usually repeats but may differ in a detail not shown here. Identical values can stand only once. Inconclusive results and toxic doses are left out. No stated cut-off is given here; in the data, active means T/C of 150% or more; inactive means T/C below 125%.

Tested on: L1210 leukemia ip in BDF1 mice, survival T/C
Experiment: NCI In Vivo Anticancer Drug Screen. Data for tumor model L1210 Leukemia (intraperitoneal) in B6D2F1 (BDF1) mice
Details: endpoint: mean survival time, higher = longer survival
Summary of the method: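 In this screen, tumor-bearing mice given compound are compared to those given vehicle, and their survival values are reported as a treated-to-control quotient.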

[1] = dose: 25.0 mg/kg/injection, schedule: Q01DX009 (ip), vehicle: saline
[2] = dose: 50.0 mg/kg/injection, schedule: Q01DX009 (ip), vehicle: saline
[3] = dose: 100.0 mg/kg/injection, schedule: Q01DX009 (ip), vehicle: saline
[4] = dose: 100.0 mg/kg/injection, schedule: Q04DX003 (ip), vehicle: Klucel (hydroxypropylcellulose) (HPC)
[5] = dose: 200.0 mg/kg/injection, schedule: Q01DX009 (ip), vehicle: saline
[6] = dose: 200.0 mg/kg/injection, schedule: Q04DX003 (ip), vehicle: Klucel (hydroxypropylcellulose) (HPC)
[7] = dose: 400.0 mg/kg/injection, schedule: Q04DX003 (ip), vehicle: Klucel (hydroxypropylcellulose) (HPC)
[8] = dose: 100.0 mg/kg/injection, schedule: Q01DX001 (ip), vehicle: saline
[9] = dose: 200.0 mg/kg/injection, schedule: Q01DX001 (ip), vehicle: saline
[10] = dose: 400.0 mg/kg/injection, schedule: Q01DX001 (ip), vehicle: saline
[11] = dose: 100.0 mg/kg/injection, schedule: Q01DX009 (ip), vehicle: saline with Tween-80
[12] = dose: 200.0 mg/kg/injection, schedule: Q01DX009 (ip), vehicle: saline with Tween-80
[13] = dose: 400.0 mg/kg/injection, schedule: Q01DX009 (ip), vehicle: saline with Tween-80
[14] = dose: 100.0 mg/kg/injection, schedule: Q04DX003 (ip), vehicle: saline with Tween-80
[15] = dose: 200.0 mg/kg/injection, schedule: Q04DX003 (ip), vehicle: saline with Tween-80
[16] = dose: 400.0 mg/kg/injection, schedule: Q04DX003 (ip), vehicle: saline with Tween-80
[17] = dose: 75.0 mg/kg/injection, schedule: Q01DX001 (ip), vehicle: saline
[18] = dose: 150.0 mg/kg/injection, schedule: Q01DX001 (ip), vehicle: saline
[19] = dose: 100.0 mg/kg/injection, schedule: Q01DX001 (ip), vehicle: saline with Tween-80
[20] = dose: 200.0 mg/kg/injection, schedule: Q01DX001 (ip), vehicle: saline with Tween-80

Measured: T/C

FC(F)(F)COP1(OCC(F)(F)F)=NP(OCC(F)(F)F)(OCC(F)(F)F)=NP(c2ccccc2)(c2ccccc2)=N1
inactive: [1] 93 % of control | [2] 96 % of control | [3] 86 % of control

OCCCNc1nc2ccccc2c2ccccc12
inactive: [3] 102 % of control | [4] 94 % of control | [5] 100 % of control | [6] 102 % of control | [7] 100 % of control

OCCCCC(O)c1ccccc1 (stereo not drawn)
inactive: [3] 107 % of control | dose: 100.0 mg/kg/injection, schedule: Q04DX003 (ip), vehicle: saline 116 % of control | [5] 96 % of control | dose: 200.0 mg/kg/injection, schedule: Q04DX003 (ip), vehicle: saline 107 % of control | dose: 400.0 mg/kg/injection, schedule: Q01DX009 (ip), vehicle: saline 100 % of control | dose: 400.0 mg/kg/injection, schedule: Q04DX003 (ip), vehicle: saline 112 % of control

CC(=O)C(Br)C(C)=O.CC(=O)C(Br)C(C)=O.CC(=O)C(Br)C(C)=O.[Rh]
inactive: dose: 50.0 mg/kg/injection, schedule: Q01DX001 (ip), vehicle: other 97 % of control | dose: 100.0 mg/kg/injection, schedule: Q01DX001 (ip), vehicle: other 96 % of control | dose: 200.0 mg/kg/injection, schedule: Q01DX001 (ip), vehicle: other 94 % of control | dose: 400.0 mg/kg/injection, schedule: Q01DX001 (ip), vehicle: other 94 % of control

N#CNS(=O)(=O)c1ccccc1
inactive: [8] 98 % of control | [9] 92 % of control | [10] 98 % of control

CCCCOC(=O)CCSCCC(=O)OCCCC
inactive: [11] 102 % of control | [12] 94 % of control | [13] 102 % of control

CC(=O)NC1CCC(CC2CCCCC2)CC1 (stereo not drawn)
inactive: dose: 100.0 mg/kg/injection, schedule: Q01DX009 (ip), vehicle: Klucel (hydroxypropylcellulose) (HPC) 101 % of control | [4] 93 % of control and 102 % of control | dose: 200.0 mg/kg/injection, schedule: Q01DX009 (ip), vehicle: Klucel (hydroxypropylcellulose) (HPC) 116 % of control | [6] 103 % of control and 93 % of control | [7] 114 % of control and 93 % of control

Cc1ccc(NS(=O)(=O)c2ccccc2)nc1
inactive: [11] 96 % of control | [14] 99 % of control | [12] 98 % of control | [15] 93 % of control | [13] 98 % of control | [16] 96 % of control

COC(=O)C(NC(C)=O)C(C)C (stereo not drawn)
inactive: dose: 6.25 mg/kg/injection, schedule: Q03HX024 (ip), vehicle: saline 97 % of control | dose: 12.5 mg/kg/injection, schedule: Q03HX024 (ip), vehicle: saline 96 % of control | dose: 25.0 mg/kg/injection, schedule: Q01DX001 (ip), vehicle: saline 100 % of control | dose: 25.0 mg/kg/injection, schedule: Q03HX024 (ip), vehicle: saline 89 % of control | dose: 50.0 mg/kg/injection, schedule: Q01DX001 (ip), vehicle: saline 96 % of control | dose: 50.0 mg/kg/injection, schedule: Q03HX024 (ip), vehicle: saline 89 % of control | [8] 101 % of control | dose: 100.0 mg/kg/injection, schedule: Q03HX024 (ip), vehicle: saline 105 % of control | [9] 99 % of control | [10] 106 % of control

O=[N+]([O-])c1ccc2[nH]c3c(c2c1)CSCC3
inactive: [11] 91 % of control | [14] 100 % of control | [12] 88 % of control | [15] 100 % of control | [13] 94 % of control | [16] 95 % of control

CC(OC(=O)CF)C(C)OC(=O)CF (stereo not drawn)
inactive: dose: 0.5 mg/kg/injection, schedule: Q01DX001 (ip), vehicle: carboxymethylcellulose (CMC) 110 % of control | dose: 1.0 mg/kg/injection, schedule: Q01DX001 (ip), vehicle: carboxymethylcellulose (CMC) 94 % of control | dose: 2.0 mg/kg/injection, schedule: Q01DX001 (ip), vehicle: carboxymethylcellulose (CMC) 108 % of control | dose: 4.0 mg/kg/injection, schedule: Q01DX001 (ip), vehicle: carboxymethylcellulose (CMC) 100 % of control | dose: 8.0 mg/kg/injection, schedule: Q01DX001 (ip), vehicle: carboxymethylcellulose (CMC) 108 % of control

ClCCN(CCCl)c1ccc(C[n+]2ccc3ccccc3c2)cc1
inactive: dose: 8.0 mg/kg/injection, schedule: Q01DX015 (ip), vehicle: carboxymethylcellulose (CMC) 109 % of control | dose: 16.0 mg/kg/injection, schedule: Q01DX015 (ip), vehicle: carboxymethylcellulose (CMC) 113 % of control | dose: 32.0 mg/kg/injection, schedule: Q01DX015 (ip), vehicle: carboxymethylcellulose (CMC) 106 % of control

Cc1cc(C(C)(C)C)c(OC(=S)N(C)C)c(C(C)(C)C)c1
inactive: dose: 12.5 mg/kg/injection, schedule: Q04DX003 (ip), vehicle: saline with Tween-80 96 % of control | dose: 25.0 mg/kg/injection, schedule: Q04DX003 (ip), vehicle: saline with Tween-80 94 % of control | dose: 50.0 mg/kg/injection, schedule: Q04DX003 (ip), vehicle: saline with Tween-80 100 % of control

c1ccc(CCCC2CCCC2)cc1
inactive: [17] 94 % of control | dose: 75.0 mg/kg/injection, schedule: Q01DX009 (ip), vehicle: saline 106 % of control | [18] 96 % of control | dose: 150.0 mg/kg/injection, schedule: Q01DX009 (ip), vehicle: saline 108 % of control | dose: 300.0 mg/kg/injection, schedule: Q01DX001 (ip), vehicle: saline 97 % of control | dose: 300.0 mg/kg/injection, schedule: Q01DX009 (ip), vehicle: saline 106 % of control

CCCCCCCNCCC#N
inactive: [19] 95 % of control | [20] 89 % of control

CN(CC#N)CC#N
inactive: [1] 105 % of control | [2] 95 % of control

O=C(O)c1ccc([N+](=O)[O-])c(P(=O)(O)O)c1
inactive: [17] 96 % of control | [18] 109 % of control

O=C(O)C1CC1c1ccc(Br)cc1 (stereo not drawn)
inactive: dose: 100.0 mg/kg/injection, schedule: Q04DX002 (ip), vehicle: Klucel (hydroxypropylcellulose) (HPC) 123 % of control | dose: 200.0 mg/kg/injection, schedule: Q04DX002 (ip), vehicle: Klucel (hydroxypropylcellulose) (HPC) 100 % of control

CC(C)(CO)N=Cc1ccc(Cl)cc1Cl
inactive: [8] 93 % of control | [9] 102 % of control | [10] 102 % of control

CC(CC(C)(C)C)C(=O)CCC(C)(C)C (stereo not drawn)
inactive: [19] 103 % of control | [20] 95 % of control | dose: 400.0 mg/kg/injection, schedule: Q01DX001 (ip), vehicle: saline with Tween-80 101 % of control

CC(NC(=O)OCc1ccccc1)C(=O)NC(Cc1ccccc1)C(=O)OCc1ccccc1 (stereo not drawn)
inactive: [14] 95 % of control | [16] 91 % of control

ClC1(Cl)CC2CC1C1C3CC(C4OC34)C21 (stereo not drawn)
inactive: dose: 50.0 mg/kg/injection, schedule: Q01DX001 (ip), vehicle: carboxymethylcellulose (CMC) 94 % of control and 119 % of control | dose: 100.0 mg/kg/injection, schedule: Q01DX001 (ip), vehicle: carboxymethylcellulose (CMC) 94 % of control | dose: 200.0 mg/kg/injection, schedule: Q01DX001 (ip), vehicle: carboxymethylcellulose (CMC) 105 % of control | dose: 400.0 mg/kg/injection, schedule: Q01DX001 (ip), vehicle: carboxymethylcellulose (CMC) 98 % of control

CCCNC(=S)NNC(=O)c1ccncc1
inactive: dose: 100.0 mg/kg/injection, schedule: Q04DX002 (ip), vehicle: saline with Tween-80 100 % of control | dose: 200.0 mg/kg/injection, schedule: Q04DX002 (ip), vehicle: saline with Tween-80 118 % of control

Cc1ccc([N+](=O)[O-])cc1NC(=O)SCCOC(=O)COc1ccc(Cl)cc1Cl
inactive: [11] 94 % of control | [14] 93 % of control | [12] 94 % of control | [15] 98 % of control | [13] 105 % of control | [16] 89 % of control

COC(=O)/C(=C/c1ccccc1)CBr
inactive: dose: 50.0 mg/kg/injection, schedule: Q01DX009 (ip), vehicle: saline with Tween-80 94 % of control | [11] 102 % of control
